Assay results: US10576062B2, “Carbamoyloxymethyl triazole cyclohexyl acids as LPA antagonists” (Bristol-Myers Squibb Company, priority 2016, dated 2020)

Each molecule was assayed against T1, human LPA1 (Homo sapiens, UniProt Q92633) (assay: LPA1 functional antagonist assay (LPA-induced calcium flux)). Settings: CHO cells overexpressing human LPA1; inhibition of calcium flux induced by 10 nM LPA; read-out: hLPA1 IC50.
T1 construct: expressed in transfected cells; host or cells: Chinese hamster ovary (CHO) cells
Format: cell-based
In short: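 CHO cells overexpressing human LPA1, loaded with calcium dye 30 min at 37° C, were preincubated 20 min at room temperature with compound (0.08 nM–5 μM, 0.5% DMSO) in HBSS/20 mM HEPES/0.1% fatty acid-free BSA.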

T1 sequence (Q92633 whole entry): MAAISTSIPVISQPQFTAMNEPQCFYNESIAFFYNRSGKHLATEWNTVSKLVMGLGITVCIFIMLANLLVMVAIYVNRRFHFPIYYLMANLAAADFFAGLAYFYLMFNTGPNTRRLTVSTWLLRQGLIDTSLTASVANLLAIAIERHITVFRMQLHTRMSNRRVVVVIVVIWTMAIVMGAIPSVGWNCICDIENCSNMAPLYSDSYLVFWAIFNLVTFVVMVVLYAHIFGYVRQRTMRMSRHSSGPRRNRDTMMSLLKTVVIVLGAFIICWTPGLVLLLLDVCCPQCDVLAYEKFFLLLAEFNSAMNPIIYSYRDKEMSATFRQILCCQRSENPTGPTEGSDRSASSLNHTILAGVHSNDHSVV

Row | Structure (SMILES) | IC50 [nM]
1 | CN(C(=O)OCc1c(-c2ccc(O[C@H]3CCC[C@H](C(=O)O)C3)c(C(F)(F)F)n2)nnn1C)C1CCCC1 [Example 276, (1S,3S)-3-((6-(5-(((cyclopentyl(methyl)carbamoyl)oxy)methyl)-1-methyl-1H-1,2,3-triazol-4-yl)-2-(trifluoromethyl)pyridin-3-yl)oxy)cyclohexane-1-carboxylic acid] | 15
2 | Cc1nc(-c2nnn(C)c2COC(=O)N(C)Cc2ccccc2)cnc1O[C@H]1CCC[C@H](C(=O)O)C1 [Example 228, (1S,3S)-3-((5-(5-(((benzyl(methyl)carbamoyl)oxy)methyl)-1-methyl-1H-1,2,3-triazol-4-yl)-3-methylpyrazin-2-yl)oxy)cyclohexane-1-carboxylic acid] | 60
3 | CCCCN(C)C(=O)OCc1c(-c2cnc(O[C@H]3CCC[C@H](C(=O)O)C3)c(C)n2)nnn1C [Example 219, (1S,3S)-3-((5-(5-(((butyl(methyl)carbamoyl)oxy)methyl)-1-methyl-1H-1,2,3-triazol-4-yl)-3-methylpyrazin-2-yl)oxy)cyclohexane-1-carboxylic acid] | 21
4 | Cc1nc(-c2nnn(C)c2COC(=O)N(C)C[C@@H]2C[C@H]2C)ccc1O[C@H]1CCC[C@H](C(=O)O)C1 [Example 257, (1S,3S)-3-((2-methyl-6-(1-methyl-5-(((methyl(((1R,2R)-2-methylcyclopropyl)methyl)carbamoyl)oxy)methyl)-1H-1,2,3-triazol-4-yl)pyridin-3-yl)oxy)cyclohexane-1-carboxylic Acid] | 18
5 | Cc1nc(-c2nnn(C)c2COC(=O)N(C)CC(C)(C)F)ccc1O[C@H]1CCC[C@H](C(=O)O)C1 [Example 253, (1S,3S)-3-((6-(5-((((2-fluoro-2-methylpropyl)(methyl)carbamoyl)oxy)methyl)-1-methyl-1H-1,2,3-triazol-4-yl)-2-methylpyridin-3-yl)oxy)cyclohexane-1-carboxylic acid] | 134
6 | CN(C(=O)OCc1c(-c2ccc(O[C@H]3CCC[C@H](C(=O)O)C3)c(C#N)n2)nnn1C)C1CCCC1 [Example 294, (1S,3S)-3-((2-cyano-6-(5-(((cyclopentyl(methyl)carbamoyl)oxy)methyl)-1-methyl-1H-1,2,3-triazol-4-yl)pyridin-3-yl)oxy)cyclohexane-1-carboxylic acid] | 15
7 | Cc1nc(-c2nnn(C)c2COC(=O)N(C)CC2CCCC2)cnc1O[C@H]1CCC[C@H](C(=O)O)C1 [Example 227, (1S,3S)-3-((5-(5-((((cyclopentylmethyl)(methyl)carbamoyl)oxy)methyl)-1-methyl-1H-1,2,3-triazol-4-yl)-3-methylpyrazin-2-yl)oxy)cyclohexane-1-carboxylic acid] | 18
8 | CCC(F)CN(C)C(=O)OCc1c(-c2cnc(O[C@H]3CCC[C@H](C(=O)O)C3)c(C)n2)nnn1C (mixture of isomers) [Example 254, (1S,3S)-3-((5-(5-((((2-fluorobutyl)(methyl)carbamoyl)oxy)methyl)-1-methyl-1H-1,2,3-triazol-4-yl)-3-methylpyrazin-2-yl)oxy)cyclohexane-1-carboxylic acid] | 132
9 | Cc1nc(-c2nnn(C)c2COC(=O)N(C)CC2(F)CCCC2)cnc1O[C@H]1CCC[C@H](C(=O)O)C1 [Example 234, (1S,3S)-3-((5-(5-(((((1-fluorocyclopentyl)methyl)(methyl)carbamoyl)oxy)methyl)-1-methyl-1H-1,2,3-triazol-4-yl)-3-methylpyrazin-2-yl)oxy)cyclohexane-1-carboxylic acid] | 72

Same assay, conditions: human LPA1; read-out: hLPA1 IC50

Row | Structure (SMILES) | IC50 [nM]
10 | CN(C(=O)OCc1c(-c2ccc(O[C@H]3CCC[C@H](C(=O)O)C3)cn2)nnn1C)C1CC2(CC2)C1 [Example 183, (1S,3S)-3-((6-(1-methyl-5-(((methyl(spiro[2.3]hexan-5-yl)carbamoyl)oxy)methyl)-1H-1,2,3-triazol-4-yl)pyridin-3-yl)oxy)cyclohexane-1-carboxylic acid] | 20
11 | Cc1nc(-c2nnn(C)c2COC(=O)N(C)CC2(F)CCC2)ccc1O[C@H]1CCC[C@H](C(=O)O)C1 [Example 189, (1S,3S)-3-((6-(5-(((((1-fluorocyclobutyl)methyl)(methyl)carbamoyl)oxy)methyl)-1-methyl-1H-1,2,3-triazol-4-yl)-2-methylpyridin-3-yl)oxy)cyclohexane-1-carboxylic acid] | 120
12 | Cc1nc(-c2nnn(C)c2COC(=O)N2CCCC(C)C2)ccc1O[C@H]1CCC[C@H](C(=O)O)C1 (mixture of isomers) [Example 161, (1S,3S)-3-((2-methyl-6-(1-methyl-5-(((3-methylpiperidine-1-carbonyl)oxy)methyl)-1H-1,2,3-triazol-4-yl)pyridin-3-yl)oxy)cyclohexane-1-carboxylic acid] | 178

Same assay, conditions: read-out: hLPA1 IC50

Row | Structure (SMILES) | IC50 [nM]
13 | CN(C(=O)OCc1c(-c2ccc(O[C@H]3CCC[C@H](C(=O)O)C3)cc2)nnn1C)C(C1CC1)C1CC1 [Example 74, (1S,3S)-3-(4-(5-((((Dicyclopropylmethyl)(methyl)carbamoyl)oxy)methyl)-1-methyl-1H-1,2,3-triazol-4-yl)phenoxy)cyclohexanecarboxylic acid] | 100
14 | Cc1nc(-c2nnn(C)c2COC(=O)N(C)C(C2CC2)C2CC2)ccc1O[C@H]1CCC[C@H](C(=O)O)C1 [Example 86, (1S,3S)-3-((6-(5-((((Dicyclopropylmethyl)(methyl)carbamoyl)oxy)methyl)-1-methyl-1H-1,2,3-triazol-4-yl)-2-methylpyridin-3-yl)oxy)cyclohexanecarboxylic acid] | 54
15 | CN(C(=O)OCc1c(-c2ccc(O[C@H]3CCC[C@H](C(=O)O)C3)c(F)c2)nnn1C)C1CCCC1 [Example 44, (1S,3S)-3-(4-(5-(((cyclopentyl(methyl)carbamoyl)oxy)methyl)-1-methyl-1H-1,2,3-triazol-4-yl)-2-fluorophenoxy)cyclohexane-1-carboxylic acid] | 6
16 | CCCN(C)C(=O)OCc1c(-c2ccc(O[C@H]3CCC[C@H](C(=O)O)C3)cc2)nnn1C (racemic) [Example 59, (rac)-trans-3-(4-(1-methyl-5-(((methyl(propyl)carbamoyl)oxy)methyl)-1H-1,2,3-triazol-4-yl)phenoxy)cyclohexane-1-carboxylic acid] | 1880
17 | Cc1cc(-c2nnn(C)c2COC(=O)N(C)CCC(C)C)ncc1O[C@H]1CCC[C@H](C(=O)O)C1 [Example 42, (1S,3S)-3-((6-(5-(((isopentyl(methyl)carbamoyl)oxy)methyl)-1-methyl-1H-1,2,3-triazol-4-yl)-4-methylpyridin-3-yl)oxy)cyclohexane-1-carboxylic acid] | 3750
18 | Cc1nc(-c2nnn(C)c2COC(=O)N(C)C2CC2)ccc1O[C@H]1CCC[C@H](C(=O)O)C1 [Example 142, (1S,3S)-3-((6-(5-(((cyclopropyl(methyl)carbamoyl)oxy)methyl)-1-methyl-1H-1,2,3-triazol-4-yl)-2-methylpyridin-3-yl)oxy)cyclohexane-1-carboxylic acid] | 252
19 | Cc1nc(-c2nnn(C)c2COC(=O)N(C)Cc2cccnc2)ccc1O[C@H]1CCC[C@H](C(=O)O)C1 [Example 120, (1S,3S)-3-((2-methyl-6-(1-methyl-5-(((methyl(pyridin-3-ylmethyl)carbamoyl)oxy)methyl)-1H-1,2,3-triazol-4-yl)pyridin-3-yl)oxy)cyclohexane-1-carboxylic acid] | 809
20 | Cc1nc(-c2nnn(C)c2COC(=O)N(C)CCC(C)C)ccc1O[C@H]1CCC[C@H](C(=O)O)C1 [Example 34, (1S,3S)-3-((6-(5-(((isopentyl(methyl)carbamoyl)oxy)methyl)-1-methyl-1H-1,2,3-triazol-4-yl)-2-methylpyridin-3-yl)oxy)cyclohexane-1-carboxylic acid] | 16
21 | [2H]C([2H])([2H])n1nnc(-c2ccc(O[C@H]3CCC[C@H](C(=O)O)C3)cn2)c1COC(=O)N(C)CC1CCC1 [Example 82, (1S,3S)-3-((6-(5-((((cyclobutylmethyl)(methyl)carbamoyl)oxy)methyl)-1-(methyl-d3)-1H-1,2,3-triazol-4-yl)pyridin-3-yl)oxy)cyclohexane-1-carboxylic acid] | 28
22 | Cc1nc(-c2nnn(C)c2COC(=O)N2CC3CCC2C3)ccc1O[C@H]1CCC[C@H](C(=O)O)C1 (stereo partly drawn) [Example 148, (1S,3S)-3-((6-(5-(((-2-azabicyclo[2.2.1]heptane-2-carbonyl)oxy)methyl)-1-methyl-1H-1,2,3-triazol-4-yl)-2-methylpyridin-3-yl)oxy)cyclohexane-1-carboxylic acid] | 325
23 | Cc1nc(-c2nnn(C)c2COC(=O)N(C)Cc2ccccc2)ccc1O[C@H]1CCC[C@H](C(=O)O)C1 [Example 30, (1S,3S)-3-((6-(5-(((benzyl(methyl)carbamoyl)oxy)methyl)-1-methyl-1H-1,2,3-triazol-4-yl)-2-methylpyridin-3-yl)oxy)cyclohexane-1-carboxylic acid] | 16
24 | CC(C1CCC1)N(C)C(=O)OCc1c(-c2ccc(O[C@H]3CCC[C@H](C(=O)O)C3)cc2)nnn1C (mixture of isomers) [Example 54, (1S,3S)-3-(4-(5-((((1-cyclobutylethyl)(methyl)carbamoyl)oxy)methyl)-1-methyl-1H-1,2,3-triazol-4-yl)phenoxy)cyclohexane-1-carboxylic acid] | 19
25 | CN(CCC1CC1)C(=O)OCc1c(-c2ccc(O[C@H]3CCC[C@H](C(=O)O)C3)cc2)nnn1C (racemic) [Example 55, (rac)-trans-3-(4-(5-((((2-cyclopropylethyl)(methyl)carbamoyl)oxy)methyl)-1-methyl-1H-1,2,3-triazol-4-yl)phenoxy)cyclohexane-1-carboxylic acid] | 41
26 | Cc1nc(-c2nnn(C)c2COC(=O)N(C)Cc2ccnn2C)ccc1O[C@H]1CCC[C@H](C(=O)O)C1 [Example 124, (1S,3S)-3-((2-methyl-6-(1-methyl-5-(((methyl((1-methyl-1H-pyrazol-5-yl)methyl)carbamoyl)oxy)methyl)-1H-1,2,3-triazol-4-yl)pyridin-3-yl)oxy)cyclohexane-1-carboxylic acid] | 982
